What was measured:
[1] = system: VEGFR; assay: Kinome-profiling, VEGFR; format: biochemical; details: at 500 nM
[2] = system: TGF-β; assay: Time course of TGF-β-induced phosphorylation of SMAD2 and ERK in IPF-LL29 cells (reverse-phase protein array); format: cell-based, human; details: 1 mM OSI-632 as printed, TGF-β 5 ng/ml
Experimental: (§1) IPF-LL29, IPF-LL97A, and human lung fibroblast LL47 cell lines were purchased from ATCC. Mouse lung fibroblasts were isolated from the lungs of male C57BL/6J mice. Cells were grown at 37° C. under 5% CO2, 95% ambient atmosphere and maintained in Dulbecco's […] (DMEM) supplemented with 10% FBS (Sigma) and 1% Penn Strep.
FIG. 1B. […] At the end of the experiment, cells were lysed in 2% SDS lysis buffer. Protein levels of phosphorylated SMAD2 and ERK were detected in the cell lysates by reverse-phase protein array.

[3] = system: bleomycin-induced lung fibrosis; assay: Bleomycin-induced lung fibrosis mouse model; format: in vivo
Experimental: FIG. 6B: Male C57BL/6J mice between 7-10 week old were used in the study. A single dose of 50 IU of bleomycin was given to mouse lung via oropharyngeal aspiration to induce lung fibrosis. […] Mice were sacrificed on Day 28 after bleomycin treatment. Lungs were either snap frozen or fixed in 10% formalin and stained for H&E and Masson Trichrome.
FIG. 6C: H&E and Masson Trichrome staining were evaluated and scored by a board-certified veterinary pathologist.
FIG. 7A: Total protein was extracted from the snap frozen lung tissue in T-PER™ Tissue Protein Extraction Reagent by Omni Bead Ruptor homogenizer. Changes in collagen I and the phosphorylation levels of indicated proteins were detected in the lung homogenates from the bleomycin in vivo studies by reverse-phase protein array.
FIG. 7B: pSTAT3 levels were detected in the fixed lung tissue by immunohistochemistry. Intensity of staining was quantified by HALO imaging software.
FIG. 8: Total RNA was extracted from the snap frozen lung tissue in TRIzol™ Reagent by Omni Bead Ruptor homogenizer. 1 μg of total RNA was reverse transcribed into first-strand cDNA using an RT2 First Strand Kit (QIAGEN). The resultant cDNA was subjected to qPCR using indicated mouse primers to measure the changes in mRNA expression of indicated mouse genes.
A single dose of 25-50 IU of bleomycin was given to mouse lung via oropharyngeal aspiration to induce lung fibrosis. […] Lungs were processed and stained for H&E and Masson Trichrome.

[4] = system: TGFBR1/2; assay: Kinome-profiling, TGFBR1/2; format: biochemical; details: at 500 nM
[5] = system: SMAD2/3; assay: SMAD firefly luciferase TGF-β reporter assay in IPF-LL29 cells; format: cell-based, human; details: TGF-β 5 ng/ml, 24 hour
Experimental: as §1
FIG. 1A. A TGF-β reporter cell line was generated by transducing a SMAD firefly luciferase reporter (Cellomics Tech, Cat #PLV-10099-50) into IPF-LL29 cells. […] 24 hours later, luciferase substrate was added to the cells and luciferase signal was measured by Bright-Glo reagent (Promega) using a luminescent plate reader. The intensity of the signal correlates with the activity of SMAD2/3.

[6] = system: IPF-LL29 and IPF-LL97A cells; assay: qPCR of TGF-β-induced gene expression in IPF-LL29 and IPF-LL97A cells; format: cell-based, human; details: human lung fibroblast cell lines derived from IPF patients
Experimental: as §1
FIGS. 2A and 2B. IPF-29 (FIG. 2A) or IPF-97A (FIG. 2B) cells were incubated with TGF-β alone at 5 ng/ml or TGF-β with indicated drugs for 48 hours and 5 days. Total cellular RNA was isolated using a RNeasy Mini Kit (QIAGEN). 1 μg of total RNA was reverse transcribed into first-strand cDNA using an RT2 First Strand Kit (QIAGEN). The resultant cDNA was subjected to qPCR using indicated human primers to measure the changes in mRNA expression of indicated human genes.

[7] = system: TGF-β activity in LX2 cells; assay: SMAD2/3 luciferase reporter assay of TGF-β activity in LX2 cells; format: cell-based, human
Source text: In preliminary studies, a well-established, culture-activated human hepatic stellate cell model (LX2, initially established by Scott Friedman as described in Xu, L. et al., Human hepatic stellate cell lines, LX-1 and LX-2: new tools for analysis of hepatic fibrosis. Gut 54, 142-151 (2005), incorporated herein by reference in its entirety) was used and a set of 32 computationally chosen, broad-specific kinase inhibitors that collectively target a broad range of kinases were screened. Each drug was examined at eight concentrations, and its effect on the activity of TGF-β (measured by SMAD2/3 luciferase reporter) and on aHSC cell viability was scored. 1536 data points were then analyzed to develop regression modeling to predict the response to >400 drugs (FIG. 9A). […] (FIG. 9B).
LX2 cells were obtained from Sigma Aldrich (Cat #SCC064). LX2 cells were grown at 37° C. under 5% CO2, 95% ambient atmosphere and maintained in Dulbecco's […] (DMEM) supplemented with 10% FBS (Sigma) and 1% Penn Strep.

[8] = system: CCl4-induced fibrosis; assay: Carbon tetrachloride (CCl4)-induced liver fibrosis mouse model; format: in vivo; details: vs CCl4-only treated mouse livers tissues; RPPA, IHC
[9] = cited from earlier work

NC(=O)c1c(OCc2c(F)cc(Br)cc2F)nsc1NC(=O)NCCCCN1CCCC1 [OSI-632, 3-(4-bromo-2,6-difluoro-benzyloxy)-5-[3-(4-pyrrolidin-1-yl-butyl)-ureido]-isothiazole-4-carboxylic acid amide]
inhibition of VEGFR [1]: ~75% | activity of TGF-β (measured by phosphorylation of SMAD2/3 and Erk) [2]: significantly decreased | lung fibrosis, scoring of H&E and Masson Trichrome staining by veterinary pathologist ([3]; 50 mg/kg oral, once a day Monday to Friday for 2 weeks, mice): significantly decreased lung fibrosis | lung inflammation, scoring of H&E and Masson Trichrome staining ([3]; bleomycin mouse model): significantly decreased | overall survival ([3]; bleomycin mouse model, OSI-632 treatment): 100% | collagen deposition (Masson trichome staining) ([3]; vs bleomycin only treated mice, 50 mg/kg): significant reduction | phosphorylation of Src, Erk, JNK, S6, Nfκβ, and pSTAT3 in lung ([3]; vs bleomycin-only treated mouse lung tissues, RPPA, IHC): significantly decreased | bleomycin-induced collagen levels and pro-fibrotic factors Fn1, IL-6 and IL-1b in lung ([3]; vs bleomycin-only treated mouse lung tissues, RPPA, qPCR): significantly decreased | inhibition of TGFBR1/2 [4]: 91% | SMAD2/3 activity (luciferase reporter, dose response) [5]: inhibited SMAD2/3 activity | TGF-β-induced expression of myofibroblast activation markers αSMA, COL1A1, COL3A1 and FN1 ([6]; 48 hours and 5 days): decreased | expression of myofibroblast proliferation stimuli TGFB1, CTGF, IL-11, FGF2 and VEGFA ([6]; TGF-β 5 ng/ml): significant decrease | IC50 ([7]; Homo sapiens, LX-2, SMAD2/3 luciferase reporter): 13.7 nM | block of TGF-β activity compared with galunisertib and pirfenidone ([7]; LX2 cells): outperformed | CCl4-induced phosphorylation of Smad2, Pdgfrb, Fgfr, Src, Nfκβ, and STAT3 [8]: significantly decreased | bleeding and thrombosis toxicity ([9]; as sometimes observed with agents targeting VEGF/VEGFR): neither had toxicity issues of bleeding and thrombosis | adverse events in the liver ([9]; in vivo): nor does it cause any adverse events in the liver | maximal tolerable dose ([9]; phases I and II trials for various cancers): 200 mg/day | safety and tolerability ([9]; phases I and II trials, toxicities primarily low grade and readily managed): safe and well-tolerated

From patent US20230301972A1, “ANTI-FIBROTIC COMPOSITION AND RELATED METHODS” (Fred Hutchinson Cancer Center, priority 2020, published 2023)
